Experimental data: patent publication US7294643B2, “UK-1 analogues: methods of preparation and use” (Board of Regents, The University of Texas System, priority 2002, dated 2007)

What was measured:
MCF-7 cells = assay: alamarBlue cytotoxicity assay, MCF-7; assay type: cell-based; settings: Homo sapiens, MCF7; MCF-7, alamarBlue, 72 h
Procedure: (§1) Cytotoxicity Assays. Cell culture cytotoxicity assays were performed using the. alamarBlue method, as described by Ahmed et al., J. Immun. Methods 1994, 170, 211-224, which is incorporated herein by reference. Briefly, aliquots of 100 μL of cell suspension (1.0-2.5×10^3 cells) was placed in 96-well microtiter plates in an atmosphere of 5% CO2 at 37° C. After 24 hours, 100 μL of culture medium and 2 μL of compound in vehicle (culture media with 40% pyridine) or vehicle alone were added, and the plates incubated an additional 72 hours. The final pyridine concentration in all cases was 0.4%; at this pyridine concentration there was no affect on the growth of cells compared to cells in culture media without added pyridine. […] After the culture media had been removed from each well, 200 μL of fresh media and 20 μL of 90% alamarBlue reagent were added, followed by an additional 6 h incubation. The fluorescent intensity was measured using a Spectrafluor Plus plate reader with excitation at 530 nm and emission at 590 nm. Results are reported as IC50 values, the average concentration required to produce a decrease of fluorescent intensity of 50% relative to vehicle-treated controls in two separate determinations.

HT-29 cells = assay: alamarBlue cytotoxicity assay, HT-29; assay type: cell-based; settings: Homo sapiens; HT-29, alamarBlue, 72 h
Procedure: as §1

HL60 cells = assay: alamarBlue cytotoxicity assay, HL60; assay type: cell-based, human; settings: HL60, alamarBlue, 72 h
Procedure: as §1

MDA-231 = assay: alamarBlue cytotoxicity assay, MDA-231; assay type: cell-based; settings: Homo sapiens, MDA-MB-231; MDA-231, alamarBlue
Procedure: as §1

A549 = assay: alamarBlue cytotoxicity assay, A549; assay type: cell-based; settings: Homo sapiens
Procedure: as §1

SK-N-AS = assay: alamarBlue cytotoxicity assay, SK-N-AS; assay type: cell-based; settings: Homo sapiens
Procedure: as §1

SK-N-F1 = assay: alamarBlue cytotoxicity assay, SK-N-F1; assay type: cell-based
Procedure: as §1

[1] = alamarBlue cytotoxicity, range over four cell lines; assay type: cell-based; settings: human
Procedure: as §1, with “hours.” for “hours. The final pyridine concentration in all cases was 0.4%; at this pyridine concentration there was no affect on the growth of cells compared to cells in culture media without added pyridine.”, “nm.” for “nm. Results are reported as IC50 values, the average concentration required to produce a decrease of fluorescent intensity of 50% relative to vehicle-treated controls in two separate determinations.”

[2] = Metal ion binding by continuous variation, Zn2+; settings: Zn^2+, methanol, 1:1 complex
Procedure: Previous work indicated the metal ion binding mechanism of UK-1, so the method of continuous variation was used to determine the ability of selected UK-1analogues to bind a variety of metal ions. Methanolic solutions of UK-1 or UK-1 analogues and metal ion salts [Ca(NO3)2, Mg(NO3)2, Zn(NO3)2, or Fe(NO3)3] at various molar ratios, and 20 μM combined total concentration, were prepared and the absorbance at 418 nm was determined. […] Compound 2.1 does bind with Ca^2+ and Zn^2+ better than UK-1.
Continuous variation plots. A 100 μM solution of UK-1 or analogue and 100 AM solutions of Ca(NO3)2, Mg(NO3)2, Zn(NO3)2, or Fe(NO3)3 were prepared in methanol. From these stock solutions, 15 samples (1 mL) of varying mole fraction of the metal ion were prepared at a constant, combined concentration of 20 μM for the ligand and the metal ion. The change in absorbance was monitored from 500 to 200 nm for each sample using as a reference a 1 mL solution containing the same concentration of ligand as the sample being measured but without the metal ion. The maximum absorbance change was typically around 418 nm but varied somewhat for each metal ion. The absorbance at 418 nm was plotted as a function of the mole fraction of the metal ion and the maximum absorbance change was determined. The absorbance of a sample containing the metal ion concentration corresponding to this maximum change and a 15 fold excess of metal ion at this ligand concentration, subtracted from a reference containing the same concentration of ligand but no metal ion was used to normalize the curve and obtain the conditional formation constant as described in the paper to Likussar, W.; Boltz, D. F. Anal. Chem. 1971, 43, 1265-1272, which is incorporated herein by reference.

yeast, or fungi = settings: yeast, or fungi, concentrations as large as 250 μM; cited from earlier work

Question: Which results are given for `COC(=O)c1cccc2oc(-c3cccc4oc(-c5ccccc5O)nc34)nc12` [UK-1]?
Answer: IC50 (MCF-7 cells): 1.6 µM; IC50 (HT-29 cells): 65 µM; IC50 (HL60 cells): 0.4 µM; IC50 (HL60 cells; Homo sapiens, HL-60, 72 h): 0.32 µM; IC50 (MDA-231): 0.5 µM; IC50 (A549): 1.9 µM; IC50 (SK-N-AS): 24 µM; IC50 (SK-N-F1): 7 µM; IC50 at 72 h [1]: 0.32 to 65 µM; Association constant for metal ion binding [2]: 2e+06 M⁻¹; growth inhibition (yeast, or fungi): does not inhibit the growth
